Laboratory results taken from ChEMBL document CHEMBL1201862, “PubChem BioAssay data set” (2004).
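Protocol summary: plate cells (96-well), add compound at 5 concentrations, incubate 48 h, interpolate endpoints linearly. GI50: concentration for 50% inhibition of growth.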 The source made the active and inactive calls. No stated cut-off is given here; in the data, active = GI50 up to about 1.1 µM and inactive = higher.

How the values were obtained:
Experiment in all cases: NCI anticancer screen, dose series, 48 h
SF-539 = tested on: SF-539
T47D = tested on: T47D
UO-31 = tested on: UO-31
RXF 393 = tested on: RXF 393
IGROV-1 = tested on: IGROV-1
TK-10 = tested on: TK-10
COLO 205 = tested on: COLO 205
ACHN = tested on: ACHN
NCI-H23 = tested on: NCI-H23
EKVX = tested on: EKVX
HCC 2998 = tested on: HCC 2998
UACC-62 = tested on: UACC-62
SNB-19 = tested on: SNB-19
A549 = tested on: A549
SF-295 = tested on: SF-295
SR = tested on: SR
CCRF-CEM = tested on: CCRF-CEM
SK-OV-3 = tested on: SK-OV-3
SK-MEL-28 = tested on: SK-MEL-28
KM12 = tested on: KM12
LOX IMVI = tested on: LOX IMVI
PC-3 = tested on: PC-3
Malme-3M = tested on: Malme-3M
HOP-92 = tested on: HOP-92
SNB-75 = tested on: SNB-75
NCI-H226 = tested on: NCI-H226
SN12C = tested on: SN12C
OVCAR-5 = tested on: OVCAR-5
HCT-116 = tested on: HCT-116
SK-MEL-5 = tested on: SK-MEL-5
MOLT-4 = tested on: MOLT-4
DU-145 = tested on: DU-145
CAKI-1 = tested on: CAKI-1
HT-29 = tested on: HT-29
Hs-578T = tested on: Hs-578T
HOP-62 = tested on: HOP-62
OVCAR-3 = tested on: OVCAR-3
MDA-MB-435 = tested on: MDA-MB-435
SF-268 = tested on: SF-268
MDA-MB-231 = tested on: MDA-MB-231
SW-620 = tested on: SW-620
BT-549 = tested on: BT-549
UACC-257 = tested on: UACC-257
OVCAR-8 = tested on: OVCAR-8
MDA-N = tested on: MDA-N
NCI-H460 = tested on: NCI-H460
MCF7 = tested on: MCF7
786-0 = tested on: 786-0
HL-60 = tested on: HL-60
RPMI-8226 = tested on: RPMI-8226
U-251 = tested on: U-251
OVCAR-4 = tested on: OVCAR-4
K562 = tested on: K562
NCI-H522 = tested on: NCI-H522
M14 = tested on: M14

Measured: GI50

O=c1[nH]cnc2c(C3OC(CO)C(O)C3O)c[nH]c12 (stereo not given)
inactive: SF-539 > 100 µM | T47D > 100 µM | UO-31 > 100 µM | RXF 393 > 100 µM | IGROV-1 > 100 µM | TK-10 > 100 µM | COLO 205 > 100 µM | ACHN > 100 µM | NCI-H23 > 100 µM | EKVX > 100 µM | HCC 2998 > 100 µM | UACC-62 > 100 µM | SNB-19 > 100 µM | A549 > 100 µM | SF-295 > 100 µM | SR > 100 µM | CCRF-CEM > 100 µM | SK-OV-3 > 100 µM | SK-MEL-28 > 100 µM | KM12 > 100 µM | LOX IMVI > 100 µM | PC-3 > 100 µM | Malme-3M > 100 µM | HOP-92 68.7 µM | SNB-75 > 100 µM | NCI-H226 > 100 µM | SN12C > 100 µM | OVCAR-5 > 100 µM | HCT-116 > 100 µM | SK-MEL-5 > 100 µM | MOLT-4 > 100 µM | DU-145 > 100 µM | CAKI-1 > 100 µM | HT-29 > 100 µM | Hs-578T > 100 µM | HOP-62 > 100 µM | OVCAR-3 > 100 µM | MDA-MB-435 > 100 µM | SF-268 > 100 µM | MDA-MB-231 > 100 µM | SW-620 > 100 µM | BT-549 > 100 µM | UACC-257 > 100 µM | OVCAR-8 > 100 µM | MDA-N > 100 µM | NCI-H460 > 100 µM | MCF7 > 100 µM | 786-0 > 100 µM | HL-60 > 100 µM | RPMI-8226 > 100 µM | U-251 > 100 µM | OVCAR-4 > 100 µM | K562 > 100 µM | NCI-H522 > 100 µM | M14 > 100 µM
